Measurements published in BindingDB's records for doi:10.1016/j.bmcl.2019.04.027 (Gilead Sciences, 2019).

What was measured:
[1] = Inhibition of NS5A L31M mutant in HCV genotype 1a infected in human HuH7 replicon cells assessed as reduction in viral replication after 3 days by luciferase reporter gene assay
[2] = Inhibition of NS5A in HCV genotype 2a JFH1 infected in human HuH7 replicon cells assessed as reduction in viral replication after 3 days by luciferase reporter gene assay
[3] = Inhibition of NS5A in HCV genotype 3a S52 infected in human HuH7 replicon cells assessed as reduction in viral replication after 3 days by luciferase reporter gene assay
[4] = Inhibition of NS5A in wild type HCV genotype 2b MD2b-1 infected in human HuH7 replicon cells assessed as reduction in viral replication after 3 days by luciferase reporter gene assay
[5] = Inhibition of NS5A in HCV genotype 4a ED43 infected in human HuH7 replicon cells assessed as reduction in viral replication after 3 days by luciferase reporter gene assay
[6] = Inhibition of NS5A in HCV genotype 6a HK6 infected in human HuH7 replicon cells assessed as reduction in viral replication after 3 days by luciferase reporter gene assay
[7] = Inhibition of NS5A Q30H mutant in HCV genotype 1a infected in human HuH7 replicon cells assessed as reduction in viral replication after 3 days by luciferase reporter gene assay
[8] = Inhibition of NS5A in HCV wild type genotype 2a infected in human HuH7 replicon cells assessed as reduction in viral replication after 3 days by luciferase reporter gene assay
[9] = Inhibition of NS5A in wild type HCV genotype 3a infected in human HuH7 replicon cells assessed as reduction in viral replication after 3 days by luciferase reporter gene assay
[10] = Inhibition of NS5A in wild type HCV genotype 2b AY232738 infected in human HuH7 replicon cells assessed as reduction in viral replication after 3 days by luciferase reporter gene assay
[11] = Inhibition of NS5A in HCV genotype 1a H77 infected in human HuH7 replicon cells assessed as reduction in viral replication after 3 days by luciferase reporter gene assay
[12] = Inhibition of NS5A A30K mutant in HCV genotype 3a infected in human HuH7 replicon cells assessed as reduction in viral replication after 3 days by luciferase reporter gene assay
[13] = Inhibition of NS5A in wild type HCV genotype 1a infected in human HuH7 replicon cells assessed as reduction in viral replication after 3 days by luciferase reporter gene assay
[14] = Inhibition of NS5A Y93H mutant in HCV genotype 1b infected in human HuH7 replicon cells assessed as reduction in viral replication after 3 days by luciferase reporter gene assay
[15] = Inhibition of NS5A in HCV genotype 5a SA13 infected in human HuH7 replicon cells assessed as reduction in viral replication after 3 days by luciferase reporter gene assay
[16] = Inhibition of NS5A Q30E mutant in HCV genotype 1a infected in human HuH7 replicon cells assessed as reduction in viral replication after 3 days by luciferase reporter gene assay
[17] = Inhibition of NS5A K44R mutant in HCV genotype 2a infected in human HuH7 replicon cells assessed as reduction in viral replication after 3 days by luciferase reporter gene assay
[18] = Inhibition of NS5A in HCV genotype 1b Con1 infected in human HuH7 replicon cells assessed as reduction in viral replication after 3 days by luciferase reporter gene assay
[19] = Inhibition of NS5A M28T mutant in HCV genotype 1a infected in human HuH7 replicon cells assessed as reduction in viral replication after 3 days by luciferase reporter gene assay
[20] = Inhibition of NS5A Y93H mutant in HCV genotype 3a infected in human HuH7 replicon cells assessed as reduction in viral replication after 3 days by luciferase reporter gene assay
[21] = Inhibition of NS5A Y93C mutant in HCV genotype 1a infected in human HuH7 replicon cells assessed as reduction in viral replication after 3 days by luciferase reporter gene assay
[22] = Inhibition of NS5A in HCV genotype 6e D88 infected in human HuH7 replicon cells assessed as reduction in viral replication after 3 days by luciferase reporter gene assay
[23] = Inhibition of NS5A P58S mutant in HCV genotype 2b infected in human HuH7 replicon cells assessed as reduction in viral replication after 3 days by luciferase reporter gene assay
[24] = Inhibition of NS5A Y93H mutant in HCV genotype 1a infected in human HuH7 replicon cells assessed as reduction in viral replication after 3 days by luciferase reporter gene assay
[25] = Inhibition of NS5A Q30R mutant in HCV genotype 1a infected in human HuH7 replicon cells assessed as reduction in viral replication after 3 days by luciferase reporter gene assay
[26] = Inhibition of NS5A in HCV genotype 2b MD2b-1 infected in human HuH7 replicon cells assessed as reduction in viral replication after 3 days by luciferase reporter gene assay
[27] = Inhibition of NS5A in HCV genotype 2a J6 infected in human HuH7 replicon cells assessed as reduction in viral replication after 3 days by luciferase reporter gene assay
[28] = Inhibition of NS5A N62S mutant in HCV genotype 2a infected in human HuH7 replicon cells assessed as reduction in viral replication after 3 days by luciferase reporter gene assay
[29] = Inhibition of NS5A R44K mutant in HCV genotype 2b infected in human HuH7 replicon cells assessed as reduction in viral replication after 3 days by luciferase reporter gene assay
[30] = Inhibition of NS5A N62V mutant in HCV genotype 2a infected in human HuH7 replicon cells assessed as reduction in viral replication after 3 days by luciferase reporter gene assay
[31] = Inhibition of NS5A in wild type HCV genotype 1b infected in human HuH7 replicon cells assessed as reduction in viral replication after 3 days by luciferase reporter gene assay
[32] = Inhibition of NS5A L31M mutant in HCV genotype 2a J6 (M31) infected in human HuH7 replicon cells assessed as reduction in viral replication after 3 days by luciferase reporter gene assay

SMILES	EC50 [1] [nM]	EC50 [2] [nM]	EC50 [3] [nM]	EC50 [4] [nM]	EC50 [5] [nM]	EC50 [6] [nM]	EC50 [7] [nM]	EC50 [8] [nM]	EC50 [9] [nM]	EC50 [10] [nM]	EC50 [11] [nM]	EC50 [12] [nM]	EC50 [13] [nM]	EC50 [14] [nM]	EC50 [15] [nM]	EC50 [16] [nM]	EC50 [17] [nM]	EC50 [18] [nM]	EC50 [19] [nM]	EC50 [20] [nM]	also measured
COC(=O)N[C@H](C(=O)N1CC2(CC2)C[C@H]1c1nc(-c2ccc3c(c2)C(F)(F)c2cc(-c4ccc5[nH]c([C@@H]6[C@H]7CC[C@H](C7)N6C(=O)[C@@H](NC(=O)OC)C(C)C)nc5c4)ccc2-3)c[nH]1)C(C)C [CHEBI:85089]	17	21	168	865	0.39	1.1	5.7	209	> 45	211	0.031	> 89	0.031	7.2	0.15	169	164	0.004	1.9	> 89	EC50 [21]: 50 nM; EC50 [22]: 264 nM; EC50 [23]: 292 nM; EC50 [24]: 52 nM; EC50 [25]: 20 nM; EC50 [26]: 530 nM; EC50 [27]: 249 nM; EC50 [28]: 123 nM; EC50 [29]: 943 nM; EC50 [30]: 222 nM; EC50 [31]: 0.004 nM
COC[C@H]1C[C@@H](c2nc(-c3ccc4c(c3)COc3cc5c(ccc6nc([C@@H]7CC[C@H](C)N7C(=O)[C@@H](NC(=O)OC)C(C)C)[nH]c65)cc3-4)c[nH]2)N(C(=O)[C@H](NC(=O)OC)c2ccccc2)C1 [GS-5816]	0.22	0.008	0.004	0.004	0.009	0.006	0.032	0.009	0.013	0.007	0.014	0.21	0.014	0.011	0.054	0.25	0.005	0.016	0.105	3.2	EC50 [21]: 0.053 nM; EC50 [22]: 0.13 nM; EC50 [23]: 0.01 nM; EC50 [24]: 8.5 nM; EC50 [25]: 0.031 nM; EC50 [26]: 0.006 nM; EC50 [27]: 0.016 nM; EC50 [28]: 0.003 nM; EC50 [32]: 0.016 nM; EC50 [29]: 0.011 nM; EC50 [30]: 0.01 nM; EC50 [31]: 0.016 nM
